According to patent US9555022B2, “Substituted triazolopyridines” (Bayer Intellectual Property GmbH, priority 2010, dated 2017):

Biological target: human full length recombinant Mps-1 kinase (Homo sapiens (Human), UniProt P33981)
Assay: Mps-1 Kinase Assay (TR-FRET)
Format: biochemical
Conditions: 10 μM ATP, 1 μM biotinylated peptide substrate, 60 min at 22° C., read-out: Mps-1 Inhibition, IC50 in M
Method in brief: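 GST-tagged full-length recombinant Mps-1 at about 1 nM final, adjusted per lot for linear range, phosphorylated a biotinylated peptide. Product bound Eu-anti-phospho(Ser/Thr) antibody over 1 h at 22° C and was read by TR-FRET to streptavidin-XLent. Compounds scored for kinase inhibition.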

human full length recombinant Mps-1 kinase, sequence (P33981 whole entry): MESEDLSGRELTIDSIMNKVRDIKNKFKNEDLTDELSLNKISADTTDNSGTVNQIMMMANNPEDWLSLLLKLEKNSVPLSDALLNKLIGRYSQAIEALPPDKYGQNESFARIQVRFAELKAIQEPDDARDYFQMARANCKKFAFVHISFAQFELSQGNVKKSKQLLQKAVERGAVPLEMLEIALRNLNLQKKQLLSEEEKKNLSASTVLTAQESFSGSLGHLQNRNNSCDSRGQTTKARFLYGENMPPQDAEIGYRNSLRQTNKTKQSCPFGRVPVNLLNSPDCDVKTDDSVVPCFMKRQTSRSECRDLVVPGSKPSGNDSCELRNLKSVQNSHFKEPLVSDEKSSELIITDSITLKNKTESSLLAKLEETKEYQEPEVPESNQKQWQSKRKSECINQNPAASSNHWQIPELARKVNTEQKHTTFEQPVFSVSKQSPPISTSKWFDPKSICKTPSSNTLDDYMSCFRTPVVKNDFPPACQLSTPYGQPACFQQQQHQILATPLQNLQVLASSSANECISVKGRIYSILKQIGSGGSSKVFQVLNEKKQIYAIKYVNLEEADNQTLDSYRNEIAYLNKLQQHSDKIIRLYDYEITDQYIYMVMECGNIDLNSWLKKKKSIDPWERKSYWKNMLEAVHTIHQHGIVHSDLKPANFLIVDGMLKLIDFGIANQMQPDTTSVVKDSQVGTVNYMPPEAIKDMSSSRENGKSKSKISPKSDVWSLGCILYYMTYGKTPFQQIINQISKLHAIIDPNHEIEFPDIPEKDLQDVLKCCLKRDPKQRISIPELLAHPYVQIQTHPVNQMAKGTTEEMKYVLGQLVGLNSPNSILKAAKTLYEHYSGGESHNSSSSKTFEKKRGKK

IC50, ≤ 1 nM:
COc1cc(C(=O)N2CCC(O)CC2)ccc1Nc1nc2ccc(-c3ccc(C(=O)NCc4ccc(F)cc4)cc3)cn2n1 [Example 04.10, N-(4-fluorobenzyl)-4-[2-({4-[(4-hydroxypiperidin-1-yl)carbonyl]-2-methoxyphenyl}amino)[,2]triazolo[1,5-a]pyridin-6-yl]benzamide]
COc1cc(C(=O)NC2COC2)ccc1Nc1nc2ccc(-c3ccc(C(=O)NCc4ccc(F)cc4)cc3)cn2n1 [Example 04.11, 4-[(6-{4-[(4-fluorobenzyl)carbamoyl]phenyl}[,2]triazolo[1,5-a]pyridin-2-yl)amino]-3-methoxy-N-(oxetan-3-yl)benzamide]
CCOc1cc(C(=O)N2CC3(COC3)C2)ccc1Nc1nc2ccc(-c3ccc(C(=O)NCc4ccc(F)cc4)cc3)cn2n1 [Example 04.12, 4-(2-{[2-ethoxy-4-(2-oxa-6-azaspiro[3.3]hept-6-ylcarbonyl)phenyl]amino}[,2]-triazolo[1,5-a]pyridin-6-yl)-N-(4-fluorobenzyl)benzamide]
CCOc1cc(C(=O)N2CCN(C(C)=O)CC2)ccc1Nc1nc2ccc(-c3ccc(C(=O)NCc4ccc(F)cc4)cc3)cn2n1 [Example 04.13, 4-[2-({4-[(4-acetylpiperazin-1-yl)carbonyl]-2-ethoxyphenyl}amino)[,2]triazolo[1,5-a]pyridin-6-yl]-N-(4-fluorobenzyl)benzamide]
CCOc1cc(C(=O)N2CC(O)C2)ccc1Nc1nc2ccc(-c3ccc(C(=O)NCc4ccc(F)cc4)cc3)cn2n1 [Example 04.14, 4-[2-({2-ethoxy-4-[(3-hydroxyazetidin-1-yl)carbonyl]phenyl}amino)[,2]triazolo[1,5-a]pyridin-6-yl]-N-(4-fluorobenzyl)benzamide]
O=C(NCc1ccc(F)cc1)c1ccc(-c2ccc3nc(Nc4ccc(C(=O)N5CC6(COC6)C5)cc4OCC(F)(F)F)nn3c2)cc1 [Example 04.15, N-(4-fluorobenzyl)-4-(2-{[4-(2-oxa-6-azaspiro[3.3]hept-6-ylcarbonyl)-2-(2,2,2-trifluoroethoxy)phenyl]amino}[,2]-triazolo[1,5-a]pyridin-6-yl)benzamide]
O=C(NCc1ccc(F)cc1)c1ccc(-c2ccc3nc(Nc4ccc(C(=O)N5CC(O)C5)cc4OCC(F)(F)F)nn3c2)cc1 [Example 04.16, N-(4-fluorobenzyl)-4-[2-({4-[(3-hydroxyazetidin-1-yl)carbonyl]-2-(2,2,2-trifluoroethoxy)phenyl}amino)[,2]triazolo[1,5-a]pyridin-6-yl]benzamide]
O=C(NCc1ccc(F)cc1)c1ccc(-c2ccc3nc(Nc4ccc(C(=O)N5CCOCC5)cc4OCC(F)(F)F)nn3c2)cc1 [Example 04.17, N-(4-fluorobenzyl)-4-(2-{[4-(morpholin-4-ylcarbonyl)-2-(2,2,2-trifluoroethoxy)phenyl]amino}[,2]-triazolo[1,5-a]pyridin-6-yl)benzamide]
COc1cc(N2CCN(C)CC2)ccc1Nc1nc2ccc(-c3ccc(C(=O)NCc4ccc(F)cc4)cc3)cn2n1 [Example 04.18, N-(4-fluorobenzyl)-4-(2-{[2-methoxy-4-(4-methylpiperazin-1-yl)phenyl]amino}[,2]triazolo[1,5-a]pyridin-6-yl)benzamide]
COc1cc(N2CCN(C(C)(C)C)CC2)ccc1Nc1nc2ccc(-c3ccc(C(=O)NCc4ccc(F)cc4)cc3)cn2n1 [Example 04.19, 4-(2-{[4-(4-tert-butylpiperazin-1-yl)-2-methoxyphenyl]amino}[,2]triazolo[1,5-a]pyridin-6-yl)-N-(4-fluorobenzyl)benzamide]
O=C(NCc1ccc(F)cc1)c1ccc(-c2ccc3nc(Nc4ccc(C(=O)N5CC6(COC6)C5)cc4F)nn3c2)cc1 [Example 04.20, N-(4-fluorobenzyl)-4-(2-{[2-fluoro-4-(2-oxa-6-azaspiro[3.3]hept-6-ylcarbonyl)phenyl]amino}[,2]triazolo[1,5-a]pyridin-6-yl)benzamide]
O=C(NCc1ccc(F)cc1)c1ccc(-c2ccc3nc(Nc4ccc(C(=O)N5CCOCC5)cc4F)nn3c2)cc1 [Example 04.21, N-(4-fluorobenzyl)-4-(2-{[2-fluoro-4-(morpholin-4-ylcarbonyl)phenyl]amino}[,2]-triazolo[1,5-a]pyridin-6-yl)benzamide]
O=C(NCc1ccc(F)cc1)c1ccc(-c2ccc3nc(Nc4ccc(C(=O)N5CCOCC5)cc4OCC(F)F)nn3c2)cc1 [Example 04.22, 4-(2-{[2-(2,2-difluoroethoxy)-4-(morpholin-4-ylcarbonyl)phenyl]amino}[,2]-triazolo[1,5-a]pyridin-6-yl)-N-(4-fluorobenzyl)benzamide]
O=C(NCc1ccc(F)cc1)c1ccc(-c2ccc3nc(Nc4ccc(C(=O)N5CCOCC5)cc4C(F)(F)F)nn3c2)cc1 [Example 04.23, N-(4-fluorobenzyl)-4-(2-{[4-(morpholin-4-ylcarbonyl)-2-(trifluoromethyl)phenyl]amino}[,2]triazolo[1,5-a]pyridin-6-yl)benzamide]
COc1cc(CN2CCN(C)CC2)ccc1Nc1nc2ccc(-c3ccc(C(=O)NCc4ccc(F)cc4)cc3)cn2n1 [Example 04.24, N-(4-fluorobenzyl)-4-[2-({2-methoxy-4-[(4-methylpiperazin-1-yl)methyl]phenyl}amino)[,2]triazolo[1,5-a]pyridin-6-yl]benzamide]
COc1cc(CN2CCOCC2)ccc1Nc1nc2ccc(-c3ccc(C(=O)NCc4ccc(F)cc4)cc3)cn2n1 [Example 04.25, N-(4-fluorobenzyl)-4-(2-{[2-methoxy-4-(morpholin-4-ylmethyl)phenyl]amino}[,2]-triazolo[1,5-a]pyridin-6-yl)benzamide]
COc1cc(OC2CCN(C)CC2)ccc1Nc1nc2ccc(-c3ccc(C(=O)NCc4ccc(F)cc4)cc3)cn2n1 [Example 04.26, N-(4-fluorobenzyl)-4-[2-({2-methoxy-4-[(1-methylpiperidin-4-yl)oxy]phenyl}amino)[,2]triazolo[1,5-a]pyridin-6-yl]benzamide]
CSc1cc(OC2CCN(C)CC2)ccc1Nc1nc2ccc(-c3ccc(C(=O)NCc4ccc(F)cc4)cc3)cn2n1 [Example 04.27, N-(4-fluorobenzyl)-4-[2-({4-[(1-methylpiperidin-4-yl)oxy]-2-(methylsulfanyl)phenyl}amino)[,2]triazolo[1,5-a]pyridin-6-yl]benzamide]
Cc1cc(C(=O)N2CC3(COC3)C2)ccc1Nc1nc2ccc(-c3ccc(C(=O)NCc4ccc(F)cc4)cc3)cn2n1 [Example 04.28, N-(4-fluorobenzyl)-4-(2-{[2-methyl-4-(2-oxa-6-azaspiro[3.3]hept-6-ylcarbonyl)phenyl]amino}[,2]triazolo[1,5-a]pyridin-6-yl)benzamide]
Cc1cc(C(=O)N2CCOCC2)ccc1Nc1nc2ccc(-c3ccc(C(=O)NCc4ccc(F)cc4)cc3)cn2n1 [Example 04.29, N-(4-fluorobenzyl)-4-(2-{[2-methyl-4-(morpholin-4-ylcarbonyl)phenyl]amino}[,2]-triazolo[1,5-a]pyridin-6-yl)benzamide]
O=C(NCc1ccc(F)cc1)c1ccc(-c2ccc3nc(Nc4ccc(C(=O)N5CC6(COC6)C5)cc4OC(F)(F)F)nn3c2)cc1 [Example 04.30, N-(4-fluorobenzyl)-4-(2-{[4-(2-oxa-6-azaspiro[3.3]hept-6-ylcarbonyl)-2-(trifluoromethoxy)phenyl]amino}[,2]-triazolo[1,5-a]pyridin-6-yl)benzamide]
O=C(NCc1ccc(F)cc1)c1ccc(-c2ccc3nc(Nc4ccc(C(=O)N5CCOCC5)cc4OC(F)(F)F)nn3c2)cc1 [Example 04.31, N-(4-fluorobenzyl)-4-(2-{[4-(morpholin-4-ylcarbonyl)-2-(trifluoromethoxy)phenyl]amino}[,2]-triazolo[1,5-a]pyridin-6-yl)benzamide]
COc1ccc(C(=O)N2CCOCC2)cc1Nc1nc2ccc(-c3ccc(C(=O)NCc4ccc(F)cc4)cc3)cn2n1 [Example 04.32, N-(4-fluorobenzyl)-4-(2-{[2-methoxy-5-(morpholin-4-ylcarbonyl)phenyl]amino}[,2]-triazolo[1,5-a]pyridin-6-yl)benzamide]
Cc1nc(N2CCOCC2)ccc1Nc1nc2ccc(-c3ccc(C(=O)NCc4ccc(F)cc4)cc3)cn2n1 [Example 04.33, N-(4-fluorobenzyl)-4-(2-{[2-methyl-6-(morpholin-4-yl)pyridin-3-yl]amino}[,2]triazolo[1,5-a]pyridin-6-yl)benzamide]
Cc1nc(N2CCCC2)ccc1Nc1nc2ccc(-c3ccc(C(=O)NCc4ccc(F)cc4)cc3)cn2n1 [Example 04.34, N-(4-fluorobenzyl)-4-(2-{[2-methyl-6-(pyrrolidin-1-yl)pyridin-3-yl]amino}[,2]triazolo[1,5-a]pyridin-6-yl)benzamide]
COc1cc(C(=O)N2CC(F)C2)ccc1Nc1nc2ccc(-c3ccc(C(=O)NCc4ccc(F)cc4)cc3)cn2n1 [Example 04.35, 4-[2-({4-[(3-fluoroazetidin-1-yl)carbonyl]-2-methoxyphenyl}amino)[,2]triazolo[1,5-a]pyridin-6-yl]-N-(4-fluorobenzyl)benzamide]
COc1cc(C(=O)N2CCOCC2)ccc1Nc1nc2ccc(-c3ccc(C(=O)NCc4ccc(Cl)cc4)cc3)cn2n1 [Example 05.01, N-(4-chlorobenzyl)-4-(2-{[2-methoxy-4-(morpholin-4-ylcarbonyl)phenyl]amino}[,2]-triazolo[1,5-a]pyridin-6-yl)benzamide]
